Where two headings read alike, the source gives them in different places.
Columns and labels:
[1] = dry state
[2] = Stability in the dry state (% loss on storage at elevated temperature); conditions: 100°C - 1 day, listed as Lyophilized anhydrous sodium cefbuperazone
[3] = pH of unit dosage forms reconstituted with Sterile Water for Injection; type: physicochemical; conditions: diluted with Sterile Water for Injection, U.S.P. to 333 mg of cefbuperazone activity per ml
[4] = Intravenous toxicity test (LD50); conditions: mouse, in vivo, mice, dosing solution 333 mg of cefbuperazone activity per ml, parentheses = 95% confidence limits
Protocol: Intravenous toxicity tests were conducted in Swiss-Webster mice using the sodium salt of cefbuperazone and the compositions of the present invention. In each case, the dosing solution contained 333 mg of cefbuperazone activity per ml.

[5] = test system: weanling female Sprague-Dawley rats; test: Rat paw-lick test for pain on injection; type: in vivo; conditions: pH 5.3; 0.1 ml subplantar, 333 mg activity per ml; mean 0-3 minutes after injection ± Standard Error
Protocol: The test animals were weanling female Sprague-Dawley rats. The test solutions were injected into the subplantar tissue of the right or left hind paw, using a syringe with a 27 gauge, 1/2-inch needle. […] The paw-lick response, an indicator of the pain caused by the injection, was recorded for each rat for three minutes following the injection. A paw-licking episode is defined as a licking response followed by a turning of the head away from the paw or five seconds of uninterrupted licking.

[6] = Text: The most preferred pH range of the reconstituted solution is about 4 to about 5, because pain upon injection normally increases with […].
For this reason, it is not possible to give absolute gram amounts of cefbuperazone and lysine, arginine, lysine acetate and/or arginine acetate to produce a specific pH. The amount of each ingredient can readily be determined for individual batches of the two components by titration of the cefbuperazone with the other component.

physchem = conditions: dry state, % Loss
Hygroscopicity = type: physicochemical; conditions: in words

CCN1CCN(C(=O)NC(C(=O)NC2(OC)C(=O)N3C(C(=O)O)=C(CSc4nnnn4C)CSC32)C(C)O)C(=O)C1=O (stereo not shown) [Anhydrous cefbuperazone free acid]
% Loss ([1]; 72 h): 7.8% | % Loss ([1]; 168 h): 4.1% | % Loss ([1]; 672 h): 3.4%

CCN1CCN(C(=O)NC(C(=O)NC2(OC)C(=O)N3C(C(=O)O)=C(CSc4nnnn4C)CSC32)C(C)O)C(=O)C1=O (stereo not shown) [sodium cefbuperazone]
% Loss [2]: melts/decomposes | pH of Solution [3]: 5.3 | LD50 [4]: > 5000 mg/kg | % Loss ([1]; 72 h): 37.2% | % Loss ([1]; 336 h): 38.0% | % Loss ([1]; 1344 h): 35.0% | Paw-Lick Response [5]: 5.20 ± 1.31 (10)

CCN1CCN(C(=O)NC(C(=O)NC2(OC)C(=O)N3C(C(=O)O)=C(CSc4nnnn4C)CSC32)C(C)O)C(=O)C1=O (stereo not shown) [Cefbuperazone free acid dihydrate]
water solubility [6]: insufficiently water-soluble | pH at which solution of the cefbuperazone takes place ([6]; 264.4 mg suspended in 10 ml of water, titrated with aqueous L(+) lysine): ~3.5 | % Loss ([1]; 24 h): + 4.5% | % Loss ([1]; 48 h): + 3.3% | % Loss ([1]; 336 h): + 4.6% | % Loss ([1]; 1344 h): + 2.2% | degraded at 168 h (physchem): 3.7% | degraded at 840 h (physchem): 0% | degraded at 1008 h (physchem): 1.8%

CCN1CCN(C(=O)NC(C(=O)NC2(OC)C(=O)N3C(C(=O)O)=C(CSc4nnnn4C)CSC32)C(C)O)C(=O)C1=O (stereo not shown) [Cefbuperazone free acid hemiacetonate]
hygroscopicity (Hygroscopicity): non- hygroscopic | % Loss ([1]; 48 h): 0% | % Loss ([1]; 336 h): 0%

— patent EP0189941A2, “Antibiotic compositions” (Bristol-Myers Squibb Company, priority 1985, dated 1986)
